Experimental data from patent publication US20110195900A1, “PEPTIDIC PTH RECEPTOR AGONISTS” (FERRING B.V., priority 2008, published 2011).
Read-outs that look alike come from different tables or passages of the source. Non-standard residues stand in square brackets, D forms with d. Residues, ends and D or L forms follow the SMILES beside them. 1Nal = N[C@@H](Cc1cccc2ccccc12)C(=O)O; β3hI = CC[C@H](C)[C@H](N)CC(=O)O; Nle = CCCC[C@H](N)C(=O)O; Aib = CC(C)(N)C(=O)O; βAla = NCCC(=O)O

What was measured:
[1] = target: T1, human PTH-1 receptor (Homo sapiens, UniProt Q03431); experiment: Reporter gene assay (CRE-luciferase) for agonist activity in transiently transfected HEK-293 cells; format: cell-based; conditions: for hPTHR-2/hPTHR-1: Table 3, ratio of EC50 values, selectivity for hPTH-1 receptor over hPTH-2 receptor
T1 construct: expressed in transfected cells; host or cells: HEK-293
T1 sequence (Q03431 27-593): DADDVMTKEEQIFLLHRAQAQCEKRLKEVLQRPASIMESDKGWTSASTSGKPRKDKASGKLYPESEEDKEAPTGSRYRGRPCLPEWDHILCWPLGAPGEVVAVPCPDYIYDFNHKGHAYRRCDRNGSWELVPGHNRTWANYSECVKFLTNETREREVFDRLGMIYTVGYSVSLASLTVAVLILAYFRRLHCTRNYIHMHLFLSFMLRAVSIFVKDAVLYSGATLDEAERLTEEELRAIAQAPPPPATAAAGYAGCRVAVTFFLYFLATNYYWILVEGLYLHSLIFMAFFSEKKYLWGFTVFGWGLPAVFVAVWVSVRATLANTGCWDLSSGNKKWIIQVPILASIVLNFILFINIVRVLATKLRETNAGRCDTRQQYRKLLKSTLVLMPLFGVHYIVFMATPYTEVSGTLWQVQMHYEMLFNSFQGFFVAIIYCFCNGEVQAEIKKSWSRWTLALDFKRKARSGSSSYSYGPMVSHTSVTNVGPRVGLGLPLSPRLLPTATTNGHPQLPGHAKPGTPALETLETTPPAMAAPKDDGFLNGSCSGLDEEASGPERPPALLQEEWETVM
Outline: (§1)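 HEK-293 cells transiently transfected with SV40-driven human PTH-1 receptor and CRE-luciferase reporter, exposed to serial compound dilutions for 4-5 h, then lysed for luciferase readout; efficacy and EC50 by non-linear regression, PTH (1-34) as internal control, n≥3. Selectivity measured in analogous human PTH-2 receptor luciferase reporter assays.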

[2] = target: T2, human PTH-2 receptor (Homo sapiens, UniProt P49190); experiment: Luciferase-based transcriptional reporter gene assay for selectivity; format: cell-based
T2 construct: expressed in transfected cells
Outline: as §1

T2 sequence (P49190 25-550): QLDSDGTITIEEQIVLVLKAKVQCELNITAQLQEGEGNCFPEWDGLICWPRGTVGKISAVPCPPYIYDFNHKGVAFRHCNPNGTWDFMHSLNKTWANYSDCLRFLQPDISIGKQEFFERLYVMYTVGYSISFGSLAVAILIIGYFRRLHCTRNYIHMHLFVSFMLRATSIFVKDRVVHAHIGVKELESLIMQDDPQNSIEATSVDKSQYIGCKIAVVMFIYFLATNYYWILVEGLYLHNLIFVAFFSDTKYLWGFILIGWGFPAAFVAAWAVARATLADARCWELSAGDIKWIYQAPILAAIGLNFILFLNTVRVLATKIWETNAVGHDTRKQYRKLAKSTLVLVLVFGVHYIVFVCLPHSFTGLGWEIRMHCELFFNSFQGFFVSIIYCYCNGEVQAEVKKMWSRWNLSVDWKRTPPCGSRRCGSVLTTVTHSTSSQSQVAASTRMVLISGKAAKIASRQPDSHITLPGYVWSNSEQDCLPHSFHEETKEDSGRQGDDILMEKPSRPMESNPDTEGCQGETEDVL

SMILES	hPTHR-2/hPTHR-1 [1]	EC50 ([2]; Table 3, luciferase reporter gene assay, read-out: hPTHR-2 EC50) [nM]	EC50 [1] [nM]	EC50 [2] [nM]
CCCC[C@H](NC(=O)[C@H](CO)NC(=O)[C@H](CC(N)=O)NC(=O)[C@H](CC(C)C)NC(=O)[C@H](Cc1c[nH]cn1)NC(=O)[C@H](CCCCN)NC(=O)CNC(=O)[C@H](CC(C)C)NC(=O)[C@H](CC(N)=O)NC(=O)[C@H](Cc1c[nH]cn1)NC(=O)[C@H](CCCC)NC(=O)[C@H](CC(C)C)NC(=O)[C@H](CCC(N)=O)NC(=O)[C@@H](NC(=O)[C@H](CCC(=O)O)NC(=O)[C@H](CO)NC(=O)[C@@H](NC(=O)[C@@H](N)CO)C(C)C)[C@@H](C)CC)C(=O)NCCC(=O)N[C@@H](CCCNC(=N)N)C(=O)N[C@H](C(=O)N[C@@H](CCC(=O)O)C(=O)N[C@@H](Cc1cccc2ccccc12)C(=O)N[C@@H](CC(C)C)C(=O)N[C@@H](CCCNC(=N)N)C(=O)N[C@@H](CCCCN)C(=O)N[C@@H](CC(C)C)C(=O)N[C@@H](CC(C)C)C(=O)N[C@@H](CCC(N)=O)C(=O)N[C@@H](CC(=O)O)C(=O)N[C@H](C(=O)N[C@@H](Cc1c[nH]cn1)C(=O)N[C@@H](CC(N)=O)C(=O)N[C@@H](Cc1ccccc1)C(N)=O)C(C)C)C(C)C [SEQ ID NO: 11, [Nle^8,18, β-Ala^19,1-Nal^23, Leu^27] hPTH-(1-34)-NH2] (H-SVSEIQL[Nle]HNLGKHLNS[Nle][βAla]RVE[1Nal]LRKLLQDVHNF-NH2; N-terminus assumed)	69	18		
CCCC[C@H](NC(=O)[C@H](CC(C)C)NC(=O)[C@H](CCC(N)=O)NC(=O)[C@@H](NC(=O)[C@H](CCC(=O)O)NC(=O)[C@H](CO)NC(=O)[C@@H](NC(=O)[C@@H](N)CO)C(C)C)[C@@H](C)CC)C(=O)N[C@@H](Cc1c[nH]cn1)C(=O)N[C@@H](CC(N)=O)C(=O)N[C@@H](CC(C)C)C(=O)NCC(=O)N[C@@H](CCCCN)C(=O)N[C@@H](Cc1c[nH]cn1)C(=O)N[C@@H](CC(C)C)C(=O)N[C@@H](CC(N)=O)C(=O)N[C@@H](CO)C(=O)N[C@H](CC(=O)N[C@@H](CCC(=O)O)C(=O)N[C@@H](CCCNC(=N)N)C(=O)N[C@H](C(=O)N[C@@H](CCC(=O)O)C(=O)N[C@@H](Cc1cccc2ccccc12)C(=O)N[C@@H](CC(C)C)C(=O)N[C@@H](CCCNC(=N)N)C(=O)N[C@@H](CCCCN)C(=O)N[C@@H](CC(C)C)C(=O)N[C@@H](CC(C)C)C(=O)N[C@@H](CCC(N)=O)C(=O)N[C@@H](CCCNC(=N)N)C(=O)N[C@H](C(=O)N[C@@H](Cc1c[nH]cn1)C(=O)N[C@@H](CC(N)=O)C(=O)N[C@@H](Cc1ccccc1)C(N)=O)C(C)C)C(C)C)[C@@H](C)CC [SEQ ID NO: 35, [Nle^8, β-hIle^18,1-Nal^23, Leu^27, Arg^30] hPTH (1-34)-NH2] (H-SVSEIQL[Nle]HNLGKHLNS[β3hI]ERVE[1Nal]LRKLLQRVHNF-NH2; N-terminus assumed)	40		0.18	7
CCCC[C@H](NC(=O)[C@H](CC(C)C)NC(=O)[C@H](CCC(N)=O)NC(=O)[C@@H](NC(=O)[C@H](CCC(=O)O)NC(=O)[C@H](CO)NC(=O)[C@@H](NC(=O)[C@@H](N)CO)C(C)C)[C@@H](C)CC)C(=O)N[C@@H](Cc1c[nH]cn1)C(=O)N[C@@H](CCC(=O)O)C(=O)N[C@@H](CC(C)C)C(=O)NCC(=O)N[C@@H](CCCCN)C(=O)N[C@@H](Cc1c[nH]cn1)C(=O)N[C@@H](CC(C)C)C(=O)N[C@@H](CC(N)=O)C(=O)N[C@@H](CO)C(=O)N[C@H](CC(=O)N[C@@H](CCC(=O)O)C(=O)N[C@@H](CCCNC(=N)N)C(=O)N[C@H](C(=O)N[C@@H](CCC(=O)O)C(=O)N[C@@H](Cc1cccc2ccccc12)C(=O)N[C@@H](CC(C)C)C(=O)N[C@@H](CCCNC(=N)N)C(=O)N[C@@H](CCCCN)C(=O)N[C@@H](CC(C)C)C(=O)N[C@@H](CC(C)C)C(=O)N[C@@H](CCC(N)=O)C(=O)N[C@@H](CC(=O)O)C(=O)N[C@H](C(=O)N[C@@H](Cc1c[nH]cn1)C(=O)N[C@@H](CC(N)=O)C(=O)N[C@@H](Cc1ccccc1)C(N)=O)C(C)C)C(C)C)[C@@H](C)CC [SEQ ID NO: 24, [Nle^8, Glu^10, β-hIle^18,1-Nal^23, Leu^27] hPTH (1-34)-NH2] (H-SVSEIQL[Nle]HELGKHLNS[β3hI]ERVE[1Nal]LRKLLQDVHNF-NH2)	24		0.13	3
CCCC[C@H](NC(=O)[C@H](CC(C)C)NC(=O)[C@H](CCC(N)=O)NC(=O)[C@@H](NC(=O)[C@H](CCC(=O)O)NC(=O)[C@H](CO)NC(=O)[C@@H](NC(=O)[C@@H](N)CO)C(C)C)[C@@H](C)CC)C(=O)N[C@@H](Cc1c[nH]cn1)C(=O)N[C@@H](CC(N)=O)C(=O)N[C@@H](CC(C)C)C(=O)NCC(=O)N[C@@H](CCCCN)C(=O)N[C@@H](Cc1c[nH]cn1)C(=O)N[C@@H](CC(C)C)C(=O)N[C@@H](CC(N)=O)C(=O)N[C@@H](CO)C(=O)N[C@H](CC(=O)N[C@@H](CCC(=O)O)C(=O)N[C@@H](CCCNC(=N)N)C(=O)N[C@H](C(=O)N[C@@H](CCC(=O)O)C(=O)N[C@@H](Cc1cccc2ccccc12)C(=O)N[C@@H](CC(C)C)C(=O)N[C@@H](CCCNC(=N)N)C(=O)N[C@@H](CCCCN)C(=O)N[C@@H](CC(C)C)C(=O)N[C@@H](CC(C)C)C(=O)N[C@@H](CCC(N)=O)C(=O)N[C@@H](CC(=O)O)C(=O)N[C@H](C(=O)N[C@@H](Cc1c[nH]cn1)C(=O)N[C@@H](CC(N)=O)C(=O)N[C@@H](CCCCN)C(N)=O)C(C)C)C(C)C)[C@@H](C)CC [SEQ ID NO: 30, [Nle^8, β-hIle^18,1-Nal^23, Leu^27, Lys^34] hPTH (1-34)-NH2] (H-SVSEIQL[Nle]HNLGKHLNS[β3hI]ERVE[1Nal]LRKLLQDVHNK-NH2; N-terminus assumed)	173		0.1	17
CCCC[C@H](NC(=O)[C@H](CC(C)C)NC(=O)[C@H](CCC(N)=O)NC(=O)[C@@H](NC(=O)[C@H](CCC(=O)O)NC(=O)[C@H](CO)NC(=O)[C@@H](NC(=O)C(C)(C)N)C(C)C)[C@@H](C)CC)C(=O)N[C@@H](Cc1c[nH]cn1)C(=O)N[C@@H](CO)C(=O)N[C@@H](CC(C)C)C(=O)NCC(=O)N[C@@H](CCCCN)C(=O)N[C@@H](Cc1c[nH]cn1)C(=O)N[C@@H](CC(C)C)C(=O)N[C@@H](CCCCN)C(=O)N[C@@H](CO)C(=O)N[C@H](CC(=O)N[C@@H](CCC(=O)O)C(=O)N[C@@H](CCCNC(=N)N)C(=O)N[C@H](C(=O)N[C@@H](CCC(=O)O)C(=O)N[C@@H](Cc1cccc2ccccc12)C(=O)N[C@@H](CC(C)C)C(=O)N[C@@H](CCCNC(=N)N)C(=O)N[C@@H](CCCCN)C(=O)N[C@@H](CC(C)C)C(=O)N[C@@H](CC(C)C)C(=O)N[C@@H](CCC(N)=O)C(=O)N[C@@H](CCCNC(=N)N)C(=O)N[C@H](C(=O)N[C@@H](Cc1c[nH]cn1)C(=O)N[C@@H](CCC(=O)O)C(=O)N[C@@H](Cc1ccccc1)C(N)=O)C(C)C)C(C)C)[C@@H](C)CC [SEQ ID NO: 38, [Aib^1, Nle^8, Ser^10, Lys^16, β-hIle^18,1-Nal^23, Leu^27, Arg^30, Glu^33] hPTH (1-34)-NH2] (H-[Aib]VSEIQL[Nle]HSLGKHLKS[β3hI]ERVE[1Nal]LRKLLQRVHEF-NH2)	61		0.09	6
CCCC[C@H](NC(=O)[C@H](CC(C)C)NC(=O)[C@H](CCC(N)=O)NC(=O)[C@@H](NC(=O)[C@H](CCC(=O)O)NC(=O)[C@H](CO)NC(=O)[C@@H](NC(=O)[C@@H](N)CO)C(C)C)[C@@H](C)CC)C(=O)N[C@@H](Cc1c[nH]cn1)C(=O)N[C@@H](CC(N)=O)C(=O)N[C@@H](CC(C)C)C(=O)NCC(=O)N[C@@H](CCCCN)C(=O)N[C@@H](Cc1c[nH]cn1)C(=O)N[C@@H](CC(C)C)C(=O)N[C@@H](CC(N)=O)C(=O)N[C@@H](CO)C(=O)N[C@H](CC(=O)N[C@@H](CCC(=O)O)C(=O)N[C@@H](CCCNC(=N)N)C(=O)N[C@H](C(=O)N[C@@H](CCC(=O)O)C(=O)N[C@@H](Cc1cccc2ccccc12)C(=O)N[C@@H](CC(C)C)C(=O)N[C@@H](CCCNC(=N)N)C(=O)N[C@@H](CCCCN)C(=O)N[C@@H](CC(C)C)C(=O)N[C@@H](CC(C)C)C(=O)N[C@@H](CCC(N)=O)C(=O)N[C@@H](CC(=O)O)C(=O)N[C@H](C(=O)N[C@@H](Cc1c[nH]cn1)C(=O)N[C@@H](CCCCN)C(=O)N[C@@H](Cc1ccccc1)C(N)=O)C(C)C)C(C)C)[C@@H](C)CC [SEQ ID NO: 28, [Nle^8, β-hIle^18,1-Nal^23, Leu^27, Lys^33] hPTH (1-34)-NH2] (H-SVSEIQL[Nle]HNLGKHLNS[β3hI]ERVE[1Nal]LRKLLQDVHKF-NH2)	209			32
